≈ marks a conversion by molar mass, not a printed value.

The subject of data set [1] is Plasmodium falciparum. Briefly: Antiplasmodium activity against chloroquine-sensitive Plasmodium falciparum NF54 asexual blood stage forms infected in human erythrocytes assessed as reduction in [3H]-hypoxanthine incorporation incubated for 48 hrs by liquid scintillation counting method. Type of data set: functional, organism-based.
Data set [2] relates to Plasmodium falciparum. The data set can be described thus: Antiplasmodium activity against multidrug resistant Plasmodium falciparum K1 asexual blood stage forms infected in human erythrocytes assessed as reduction in [3H]-hypoxanthine incorporation incubated for 48 hrs by liquid scintillation counting method. Format: functional, organism-based.
In data set [3] the test system is CHO. The data set can be described thus: Cytotoxicity in CHO cells assessed as reduction in cell viability by MTT assay. Type of data set: cell-based. Conditions: Cricetulus griseus.
Data set [4] is described as follows: Selectivity index, ratio of IC50 for cytotoxicity in CHO cells to IC50 for antiplasmodium activity against chloroquine-sensitive Plasmodium falciparum NF54 asexual blood stage forms infected in human erythrocytes. Type of data set: toxicity, cell-based. Conditions: Chinese hamster, read-out: Ratio IC50.
Data set [5] has as its system Hemozoin. The data set can be described thus: Inhibition of beta-hematin formation assessed as reduction in hemozoin formation incubated for 5 hrs by NP40 detergent-based assay.
A short description of data set [6]: Kinetic solubility in pH 7.4 PBS at 0.125 to 8 mM incubated for 2 hrs by turbidimetric kinetic solubility assay. Conditions: read-out: Kinetic_solubility. Type of data set: physicochemical.

Consider `CCN(CCNc1nc2ccccc2[nH]1)Cc1cc(Cl)ccc1O`, for which the IC50 in data set [1] is 0.11 µM; in data set [2] it was 0.762 µM; in data set [3] it was 25.1 µM; in data set [5] it was 125 µM. Moreover, the selectivity ratio in data set [4] stood at 228. The solubility kinetic at 2 h in data set [6] is 160 µM (≈ 55.2 µg/mL).

For the molecule `CCN(CCNc1nc2ccccc2[nH]1)Cc1cc(C#N)ccc1O`, the IC50 in data set [1] is 0.968 µM; in data set [2], greater than 10 µM; in data set [3] it was 50 µM; in data set [5] it was 250 µM. Also, the selectivity ratio in data set [4] was 52. For the same molecule, the solubility kinetic at 2 h in data set [6] came to 160 µM (≈ 53.7 µg/mL).

Regarding `CCN(CCNc1nc2ccccc2[nH]1)Cc1cccc(F)c1O`, the IC50 in data set [1] was 0.299 µM; in data set [2], 1.49 µM; in data set [3] it was 50 µM; in data set [5], 161 µM. For the same molecule, in data set [4], the selectivity ratio was found to be 167. Moreover, the solubility kinetic at 2 h in data set [6] was found to be 160 µM (≈ 52.5 µg/mL).

Consider `CCN(CCNc1nc2ccccc2[nH]1)Cc1ccccc1O`, for which the IC50 in data set [1] is 0.474 µM; in data set [2] it was 2.66 µM; in data set [3], 50 µM; in data set [5], 452 µM. The selectivity ratio in data set [4] is 105. The solubility kinetic at 2 h in data set [6] was greater than 200 µM.

On to `CCN(CCNc1nc2ccccc2[nH]1)Cc1cc(F)cc(F)c1O`, for which the IC50 in data set [1] stood at 0.222 µM; in data set [2] it was 0.952 µM; in data set [3], 50 µM; in data set [5], 68 µM. Further, the selectivity ratio in data set [4] amounted to 225. Moreover, the solubility kinetic at 2 h in data set [6] amounted to 140 µM (≈ 48.5 µg/mL).

`CCN(CCNc1nc2ccccc2[nH]1)Cc1cc(C)ccc1O`: the IC50 in data set [1] came to 0.408 µM; in data set [2], 2.43 µM; in data set [3], 24.5 µM; in data set [5] it was 4220 µM. Besides, in data set [4], the selectivity ratio was 60. For the same molecule, the solubility kinetic at 2 h in data set [6] was greater than 200 µM.

In the case of `CCN(CCNc1nc2ccccc2[nH]1)Cc1cccc(Cl)c1O`, the IC50 is 0.521 µM in data set [1], 1.25 µM in data set [2], 50 µM in data set [3] and 130 µM in data set [5]. In data set [4], the selectivity ratio was 96. The solubility kinetic at 2 h in data set [6] was 160 µM (≈ 55.2 µg/mL).

As to `CC[C@H]1CN2CCc3cc(OC)c(OC)cc3[C@@H]2C[C@@H]1C[C@H]1NCCc2cc(OC)c(OC)cc21` [EMETINE], the IC50 in data set [3] was found to be 0.059 µM.

Take `CCN(CCNc1nc2ccccc2[nH]1)Cc1cc(Cl)cc(Cl)c1O`: the IC50 in data set [1] stood at 0.4 µM; in data set [2] it was 1.4 µM; in data set [3], 50 µM; in data set [5], 30 µM. In addition, the selectivity ratio in data set [4] amounted to 125. Besides, the solubility kinetic at 2 h in data set [6] came out at 160 µM (≈ 60.7 µg/mL).

For the molecule `CCN(CCNc1nc2ccccc2[nH]1)Cc1ccc(Cl)cc1O`, the IC50 in data set [1] was 0.079 µM; in data set [2] it was 0.335 µM; in data set [3] it was 21.6 µM; in data set [5] it was 32 µM. Besides, the selectivity ratio in data set [4] worked out at 273. Moreover, the solubility kinetic at 2 h in data set [6] was 160 µM (≈ 55.2 µg/mL).

As to `C[C@H]1[C@H](OC(=O)CCC(=O)O)O[C@@H]2O[C@@]3(C)CC[C@H]4[C@H](C)CC[C@@H]1[C@@]24OO3` [ARTESUNATE], in data set [1], the IC50 stood at 0.007 µM.

With `CCN(CCNc1nc2ccccc2[nH]1)Cc1cc(OC)ccc1O`, the IC50 was 0.32 µM in data set [1], 3.04 µM in data set [2], 50 µM in data set [3] and 489 µM in data set [5]. For the same molecule, the selectivity ratio in data set [4] stood at 156. Further, in data set [6], the solubility kinetic at 2 h came to 160 µM (≈ 54.5 µg/mL).

On to `CCN(CCNc1nc2ccccc2[nH]1)Cc1ccccc1`, for which the IC50 in data set [1] came out at 3.6 µM; in data set [2], 1.88 µM. Besides, the solubility kinetic at 2 h in data set [6] stood at 140 µM (≈ 41.2 µg/mL).

With `CCN(CCNc1nc2ccccc2[nH]1)Cc1cccnc1O`, the IC50 is greater than 10 µM in data set [1], greater than 10 µM in data set [2] and 50 µM in data set [3]. The solubility kinetic at 2 h in data set [6] was greater than 200 µM.

Source of the values: ChEMBL document CHEMBL4368895, “Incorporation of an intramolecular hydrogen bonding motif in the side chain of antimalarial benzimidazoles” (Medchemcomm, 2019).
